Assay results: article PMC12668289 (RSC Chemical Biology, 2025)
Several values for one entry are separate records, joined by “and”; a condition that tells them apart may be missing. Identical values can stand only once.

How the values were obtained:
Eluc [1] = experiment: BL emission spectra of luciferase-luciferin reactions; assay type: biochemical, Pyrearinus termitilluminans; conditions: 100 mM HEPES pH 8.0, 25 °C
Procedure: (§1) 1.5 Bioluminescence characterizations
(§2) Reactions of luciferases, including Photinus pyralis luciferase (Fluc), Phrixothrix hirtus luciferase (SLR), Pyrearinus termitilluminans […]
(§3) mM D-LH 2 analogues, 3 mM ATP, 6 mM MgCl2, and 10 µM luciferase in 0.2 ml of 100 mM HEPES-NaOH pH 8.0. The bioluminescence (BL) emission characteristics were recorded using a microplate reader in a BL mode (Thermo Scientific, Varioskan, LUX multimode). […]
sphere-based multichannel spectrometer with a charge-coupled device (CCD) detector. […]

SLR = experiment: Steady-state kinetics of luciferase reactions (luminometer); assay type: biochemical, Phrixothrix hirtus; conditions: for Substrate inhibition: concentration range tested 0-300; for appKm: pH 8.0, 25 °C; for Relative kcat: relative to 2a compound
Procedure: as §1, §2, §3
BL of the
(§4) The reactions were initiated by mixing 25 µl of premixed solution of luciferases/D-LH 2 analogues with 125 µl of 3 mM ATP and 6 mM MgCl2 in 100 mM HEPES-NaOH (pH 8.0). The light intensity (relative light unit, RLU) during 0-300 sec was then collected to represent the overall luciferase activity which was further used for calculating kinetic parameters from the Michaelis-Menten equation. […]

Eluc [2] = experiment: as above; assay type: biochemical, Pyrearinus termitilluminans; conditions: for Substrate inhibition: concentration range tested 0-300; for appKm: pH 8.0, 25 °C
Procedure: as §1, §2, §3
BL of the
as §4

Pmluc-WT = experiment: as above; assay type: biochemical, Pyrocoelia miyako; conditions: for Substrate inhibition: concentration range tested 0-300; for appKm: pH 8.0, 25 °C; for Relative kcat: relative to 2a compound
Procedure: as §1, §2, §3
BL of the
as §4

Pmluc-N230S = experiment: as above; assay type: biochemical, Pyrocoelia miyako; parameters: Substrate inhibition: unit not given here; conditions: for appKm: pH 8.0, 25 °C; for Relative kcat: relative to 2a compound
Procedure: as §1, §2, §3
BL of the
as §4

Fluc = Fluc (Photinus pyralis, UniProt P08659); experiment: Bioluminescence quantum yield measurement; assay type: biochemical
Sequence of Fluc (P08659 whole entry): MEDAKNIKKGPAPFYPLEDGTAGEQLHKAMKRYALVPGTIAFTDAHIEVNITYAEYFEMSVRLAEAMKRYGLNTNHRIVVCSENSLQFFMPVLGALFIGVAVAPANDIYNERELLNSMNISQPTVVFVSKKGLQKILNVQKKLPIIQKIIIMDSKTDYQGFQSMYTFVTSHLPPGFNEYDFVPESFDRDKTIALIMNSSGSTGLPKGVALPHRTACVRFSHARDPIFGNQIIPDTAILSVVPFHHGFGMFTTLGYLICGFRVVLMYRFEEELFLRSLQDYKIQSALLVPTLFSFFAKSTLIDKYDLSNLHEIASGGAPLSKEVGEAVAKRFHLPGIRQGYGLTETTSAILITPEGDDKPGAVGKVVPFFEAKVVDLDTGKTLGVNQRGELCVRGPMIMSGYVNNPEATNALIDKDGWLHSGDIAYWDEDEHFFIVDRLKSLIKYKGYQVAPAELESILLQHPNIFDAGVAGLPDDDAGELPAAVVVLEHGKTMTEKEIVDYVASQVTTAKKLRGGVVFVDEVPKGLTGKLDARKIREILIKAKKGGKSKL
Procedure: as §1, §2
mM D-LH 2 analogues, 3 mM ATP, 6 mM MgCl2, and 10 µM luciferase in 0.2 ml of 100 mM HEPES-NaOH pH 8.0. […]
A reference light source was used for calibrating a sphere spectrometer equipped with a cooled CCD detector.
The absolute responsivity of each luciferase-luciferin reaction was calculated based on a linear standardization between total photon flux measured using the sphere spectrometer equipped with a cooled CCD detector and relative count values measured by a luminometer. Total photons emitted from the bioluminescence reaction of each luciferase-luciferin pair were measured using a calibrated luminometer. A reaction containing 0.5-5 nM of each luciferin, 3 mM ATP, 3 mM MgCl2 in 100 mM Tris-HCl (total volume of 200 µl) was placed into the luminometer and background signals were recorded. The reaction was then initiated by adding 20 µl of 0.5 […]
(§5) mM purified luciferases into the reaction tube and the bioluminescence signals were monitored until it decayed to the background level.

[3] = test system: HepG2 cell line stably expressing a Fluc reporter; experiment: BL spectra in live HepG2 cells stably expressing Fluc; assay type: cell-based, human; conditions: live HepG2, DMEM with 25 mM HEPES-NaOH pH 7.0, 37 °C, 100 µM
Procedure: as §5
The QY value was calculated from the measured total numbers of photon emission from the reaction of each D-LH 2 analogue with […]
1.6 Mammalian cell line culture and bioluminescence assays
Human embryotic kidney (HEK293T) cells, human hepatocyte carcinoma cancer (HepG2) cells, human cervical carcinoma (HeLa) cells, and Abelson leukemia virus-transformed cell line derived from BALB/c mice (RAW264.7) cells (American Type Culture Collection, USA) were grown in Dulbecco’s Modified Eagle Medium (DMEM) in low glucose supplemented with 10% (v/v) heat-inactivated fetal bovine serum (FBS) plus 1% (w/v) penicillin-streptomycin. Four types of cells were maintained at 37 °C with 5% CO2. For transient transfection, […]
supplemented with 10% (v/v) heat-inactivated FBS. Before transfection, the cultured medium was removed and added a fresh minimal essential medium with reduced amount of serum (opti-MEMTM) to each well. Cells were transfected by adding 0.07 pmol of pGL4.13 [luc2/SV40] as a target vector and 0.007 pmol of pRL-TK as a control vector using lipofectamineTM3000 (Thermo Fisher Scientific) in opti-MEMTM and lipofection. Cells were incubated for 5 h and then the supernatant medium was replaced by a fresh working DMEM medium.
Cells were harvested by washing with 500 μl PBS buffer (pH 7.4). The cells were detached […]
freezing-thawing process. […]
kept at -80 °C until used.
The 150 µl assay reaction was carried out in 150 µl 100 mM HEPES-NaOH (pH 8.0). The 25 µl […]
100 mM HEPES-NaOH (pH 8.0). Then, the RLU signals of each D-LH 2 and analogues were compared. […]
proteins) and a substrate cocktail reagent (3 mM ATP and 6 mM MgCl2 in 100 mM HEPES pH 8.0). The detection sensitivity of crude lysate of HEK293T expressing Fluc was determined by measuring RLU of the reaction with a luminometer with concentrations under the linearity […]
After the cells reached the highest BL intensity, the dish was recorded with a highly sensitive CCD […]

Fluc (HeLa) = experiment: Sensitivity of live reporter cell detection (LOD of cell number); assay type: cell-based, human; conditions: for Limit of detection (LOD), cells: Fluc (HeLa)
[4] = Fluc-expressing HeLa, F0 filter

SMILES | Bioluminescence wavelength (BLλ) (Eluc [1]) [nm] | Substrate inhibition (SLR) [µM] | appKm (SLR) [µM] | Substrate inhibition (Eluc [2]) [µM] | appKm (Eluc [2]) [µM] | Substrate inhibition (Pmluc-WT) [µM] | appKm (Pmluc-WT) [µM] | appKm (Pmluc-N230S; Pmluc-N230S) [µM] | Quantum yield (Fluc) | BL spectrum peak in live cells [3] [nm] | Limit of detection (LOD), cells (Fluc (HeLa); F0 (no filter)) [cells] | Limit of detection (LOD), cells (Fluc (HeLa); F2 (red filter)) [cells] | Relative kcat (SLR) | Relative kcat (Pmluc-WT) | Relative kcat (Pmluc-N230S; Pmluc-N230S) | other results
O=C(O)[C@H]1CSC(c2nc3ccc(O)cc3s2)=N1 [Compound 2a, D-luciferin, reference compound] | 537 | > 4 | 0.5 | > 1e+06 | 0.1 | > 4 | 0.1 | 0.6 | 0.44 and 0.44 ± 0.04 | 604 | 4661 | 997 |  |  |  | 
Cc1cc2nc(C3=N[C@@H](C(=O)O)CS3)sc2cc1O [Compound 2b, 5’-methyl-D-luciferin] | 560 | > 14 | 0.7 | > 8 | 0.7 | > 2 | 0.4 | 1.8 | 0.52 and 0.52 ± 0.01 | 609 | 1457 | 415 | 157.3 | 110.0 | 518.5 | Relative kcat (BL intensity), fold of 2a (Pmluc-N230S; Pmluc N230S, compared to 2a): 5.2 fold; Substrate inhibition (Pmluc-N230S; Pmluc-N230S, concentration range tested 0-300): > 4.0
Cc1cc2nc(C3=N[C@@H](C(=O)O)CS3)sc2c(C)c1O [Compound 2c, 5’,7’-di-methyl-D-luciferin] | 573 | > 2.1 | 0.5 | > 12.5 | 3.5 | > 8.3 | 1.8 | 2.6 | 0.20 and 0.200 ± 0.007 | 638 |  | 350 | 134.8 | 7.7 | 48.1 | Relative kcat (Eluc [2]; relative to 2a compound): 0.3; Sensitivity higher than that of 2a (Fluc (HeLa); [4]): ~13.0 fold; Sensitivity higher than that of 2b (Fluc (HeLa); [4]): about 4.1 fold; Sensitivity higher than that of 2a (Fluc (HeLa); Fluc-expressing HeLa, F2 filter): about 2.8 fold
